Test results published in US9840522B2, “Multi-modal bioprobe for bladder cancer imaging and photodynamic therapy” (Hong Kong Baptist University, priority 2014, dated 2017).

Tested on: xenograft tumor (T24 bladder cancer cells)
Test: In vivo magnetic resonance imaging after tail vein injection
Parameters: species or system mice
Settings: MRI immediately
Protocol: After tail vein injection of Gd-3-R1 and Gd-DOTA into the mice, MRI experiment is conducted immediately.

## O=C([O-])CN1CCN(CC(=O)[O-])CCN(CC(=O)O)CCN(CC(=O)[O-])CC1.[Gd+3] [Gd-DOTA]
  MRI contrast effect on xenograft tumor: enhances the whole body signal without selectivity toward the tumor
